Results on twelve compounds are retold here after patent US20080262021A1, “1H-Imidazoquinoline Derivatives as Prote In Kinase Inhibitors” (NOVARTIS AG, priority 2003, published 2008).

The IC50 is the midpoint of a concentration-inhibition curve.

SMILES strings stand for the structures.

Chain of PKB (P31749 whole entry): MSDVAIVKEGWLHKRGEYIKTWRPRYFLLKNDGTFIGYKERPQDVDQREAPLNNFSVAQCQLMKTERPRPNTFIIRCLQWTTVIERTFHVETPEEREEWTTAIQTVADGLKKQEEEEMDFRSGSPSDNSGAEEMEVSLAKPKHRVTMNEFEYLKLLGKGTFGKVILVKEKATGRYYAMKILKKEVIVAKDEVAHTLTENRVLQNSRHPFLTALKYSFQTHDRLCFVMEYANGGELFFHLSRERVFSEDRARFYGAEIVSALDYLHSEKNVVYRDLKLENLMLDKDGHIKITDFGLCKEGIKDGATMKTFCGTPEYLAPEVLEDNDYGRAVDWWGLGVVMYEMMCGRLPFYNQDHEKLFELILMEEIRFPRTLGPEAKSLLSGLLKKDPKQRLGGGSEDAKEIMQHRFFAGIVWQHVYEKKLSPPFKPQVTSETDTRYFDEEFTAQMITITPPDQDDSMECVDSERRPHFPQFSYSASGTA

The first assay addresses PKB (Homo sapiens, UniProt P31749). The assay is described as follows: PKB kinase inhibition (PDK1-activated GST-PKB, 33P peptide assay). It is filed as biochemical. Conditions: read-out: IC50 Range Class, inhibition of PKB. Here is the method:
GST-PKB [100 ng, specific activity (SA): 0.2 nmole/mg/min.] is incubated for 30 minutes at room temperature (RT) with purified recombinant GST-PDK1 (1 ng, SA: 2 nmole/min./mg). The activation is performed as follows: 0.1 μg of GST-PDK1 (0.05 μL) and 10 μg of GST-PKB (0.45 μL) are mixed in a total volume of 0.75 μL containing 15 μM ATP, 3 mM MgCl2, 20 mM hepes (pH 7.6) for 30 minutes at RT. The reaction is subsequently stopped by adding 0.25 μL containing 30% gycerol (w/w) and 0.06 μL of 500 mM EDTA. 100-500 ng (0.01-0.05 μL) activated GST-PKB is incubated in a final volume of 30 μL with 10 μM of the RRPRTRSFS peptide, 10 mM Mg-acetate, 50 mM MOPS (PH 7.5), 1 mM DTT and 300 μg/mL BSA, 20 μM ATP (0.1 μCi γ-^33P-ATP). The reaction is carried out for 30 minutes at RT in the presence of either 1% DMSO or the text compound of the formula (I) at the required concentration in 1% DMSO. The reaction is terminated by the addition of 20 μL 125 mM EDTA. Thirty (30) μL of each sample is spotted onto P81 Whatman and the paper squares processed. See Ferrari and Thomas, Methods Enzymol, Vol. 200, pp. 159-169 (1991). IC50 values are calculated by linear regression analysis of the percentage inhibition of each compound in duplicate.
Consider `NCCc1ccc(-n2cnc3cnc4cc(F)c(-c5cccs5)cc4c32)cc1` [Example 61, 2-[4-(7-Fluoro-8-thiophen-2-yl-imidazo[4,5-c]quinolin-1-yl)-phenyl]-ethylamine], for which the IC50 is ≤ 500 nM.
With `NCCc1ccc(-n2cnc3cnc4cc(F)c(-c5ccc6[nH]ccc6c5)cc4c32)cc1` [Example 64, 2-{4-[7-Fluoro-8-(1H-indol-5-yl)-imidazo[4,5-c]quinolin-1-yl]-phenyl}-ethylamine], the IC50 is ≤ 500 nM.
On the same count and under the same terms, then `NCCCc1ccc(-n2cnc3cnc4cc(F)c(-c5ccsc5)cc4c32)cc1` [Example 74, 3-[4-(7-Fluoro-8-thiophen-3-yl-imidazo[4,5-c]quinolin-1-yl)-phenyl]-propylamine], with ≤ 500 nM; and `NCCc1ccc(-n2cnc3cnc4cc(Cl)c(-c5ccsc5)cc4c32)cc1` [Example 90, 2-[4-(7-Chloro-8-thiophen-3-yl-imidazo[4,5-c]quinolin-1-yl)-phenyl]-ethylamine], with ≤ 500 nM.

Another assay deals with T1, RET (Homo sapiens, UniProt P07949).
T1 construct: fused on or other part: N-terminal GST tag (from vector pFB-GSTX3)
T1 sequence (P07949 1-1072 isoform P07949-2): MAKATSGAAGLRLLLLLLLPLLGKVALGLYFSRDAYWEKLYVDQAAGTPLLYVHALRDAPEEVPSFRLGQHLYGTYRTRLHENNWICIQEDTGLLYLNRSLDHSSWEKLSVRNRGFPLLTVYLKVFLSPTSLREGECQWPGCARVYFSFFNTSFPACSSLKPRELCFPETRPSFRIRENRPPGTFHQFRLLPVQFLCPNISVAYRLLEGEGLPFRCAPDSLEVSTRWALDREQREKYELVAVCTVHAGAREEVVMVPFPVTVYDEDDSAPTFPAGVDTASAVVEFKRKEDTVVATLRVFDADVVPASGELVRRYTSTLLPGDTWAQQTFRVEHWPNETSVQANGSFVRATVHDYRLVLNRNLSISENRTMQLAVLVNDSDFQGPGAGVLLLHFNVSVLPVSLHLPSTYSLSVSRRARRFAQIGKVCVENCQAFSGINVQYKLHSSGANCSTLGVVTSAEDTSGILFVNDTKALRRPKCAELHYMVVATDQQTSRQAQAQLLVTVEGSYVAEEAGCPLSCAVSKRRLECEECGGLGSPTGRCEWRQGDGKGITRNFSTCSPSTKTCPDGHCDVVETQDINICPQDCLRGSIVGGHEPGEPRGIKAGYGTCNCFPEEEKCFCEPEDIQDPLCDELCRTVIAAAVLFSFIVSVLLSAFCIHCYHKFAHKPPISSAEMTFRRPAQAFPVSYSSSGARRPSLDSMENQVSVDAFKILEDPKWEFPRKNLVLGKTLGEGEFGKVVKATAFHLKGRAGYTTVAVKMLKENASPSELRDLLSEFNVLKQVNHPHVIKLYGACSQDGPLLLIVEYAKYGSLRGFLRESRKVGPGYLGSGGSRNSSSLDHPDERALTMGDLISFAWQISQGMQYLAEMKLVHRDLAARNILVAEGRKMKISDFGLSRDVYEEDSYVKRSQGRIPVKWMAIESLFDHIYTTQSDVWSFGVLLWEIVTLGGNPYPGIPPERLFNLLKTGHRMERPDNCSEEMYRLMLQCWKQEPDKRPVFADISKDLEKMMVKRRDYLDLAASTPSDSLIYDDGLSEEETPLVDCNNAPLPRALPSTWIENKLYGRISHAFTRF
Nature of the assay: RET kinase inhibition (33P filter assay, GST-wtRET or GST-RET-Men2B). It is filed as biochemical.
Details: not given
Here is the method: RET kinase inhibition is determined as follows: The baculovirus donor vector pFB-GSTX3 is used to generate a recombinant baculovirus that expresses the amino acid region 658-1072 (Swiss Prot No. Q9BTB0) of the intra-cytoplasmic kinase domain of human RET-Men2A which corresponds to the wild-type kinase domain of RET (wtRET) and RET-Men2B, which differs from the wtRET by the activating mutation in the activation loop M918T. The coding sequences for the cytoplasmic domain of wtRET and RET-Men2B are amplified by PCR from the plasmids pBABEpuro RET-Men2A and pBABEpuro RET-Men2B, respectively which are received from Dr. James Fagin, College of Medicine, University of Cincinnati. The amplified DNA fragments and the pFB-GSTX3 vector are made compatible for ligation by digestion with SaII and KpnI. Ligation of these DNA fragments results in the baculovirus donor plasmid pFB-GX3-RET-Men2A and pFB-GX3-RET-Men2B, respectively.
Production of virus: Transfer vectors containing the kinase domains are transfected into the DH10Bac cell line (GIBCO) and plated on selective agar plates. Colonies without insertion of the fusion sequence into the viral genome (carried by the bacteria) are blue. Single, white colonies are picked and viral DNA (bacmid) isolated from the bacteria by standard plasmid purification procedures. Sf9 cells or Sf21 (American Type Culture Collection) cells are then transfected in 25 cm^2 flasks with the viral DNA using Cellfectin reagent.
Determination of small scale protein expression in Sf9 cells: Virus-containing media is collected from the transfected cell culture and used for Infection to increase its titer. Virus-containing media obtained after two rounds of infection is used for large-scale protein expression. For large-scale protein expression 100 cm^2 round tissue culture plates are seeded with 5×10^7 cells/plate and infected with 1 mL of virus-containing media (approximately 5 MOls). After 3 days, the cells are scraped off the plate and centrifuged at 500 rpm for 5 minutes. Cell pellets from 10-20, 100 cm^2 plates, are re-suspended in 50 mL of ice-cold lysis buffer (25 mM tris-HCl, pH 7.5, 2 mM EDTA, 1% NP-40, 1 mM DTT, 1 mM P MSF). The cells are stirred on ice for 15 minutes and then centrifuged at 5,000 rpms for 20 minutes.
Purffication of GST-tagged proteins: The centrifuged cell lysate is loaded onto a 2 mL glutathione-sepharose column (Pharmacia) and washed 3× with 10 mL of 25 mM tris-HCl, pH 7.5, 2 mM EDTA, 1 mM DTT, 200 mM NaCl. The GST-tagged proteins are then eluted by 10 applications (1 mL each) of 25 mM tris-HCl, pH 7.5, 10 mM reduced-glutathione, 100 mM NaCl, 1 mM DTT, 10% glycerol and stored at −70° C.
Measure of enzyme activity: Tyrosine protein kinase assays with either purified GST-wtRET or GST-RET-Men2B protein are carried out in a final volume of 30 μL containing 15 ng of either GST-wtRET or GST-RET-Men2B protein, 20 mM tris-HCl, pH 7.5, 1 mM MnCl2, 10 mM MgCl2, 1 mM DTT, 3 μg/mL poly(Glu, Tyr) 4:1, 1% dimethyl sulfoxide (DMSO), 2.0 μM ATP (γ-[^33P]-ATP 0.1 μCi). The activity is assayed in the presence or absence of inhibitors, by measuring the Incorporation of ^33P from [γ^33P] ATP into poly(Glu, Tyr) 4:1. The assay is carried out in 96-well plates at ambient temperature for 15 minutes under conditions described below and terminated by the addition of 20 μL of 125 mM EDTA. […] Membranes are counted after drying at ambient temperature, mounting in Packard TopCount 96-well frame, and addition of 10 μL/well of Microscint™ (Packard). […]
For `Fc1ccccc1-n1cnc2cnc3ccc(-c4ccncc4)cc3c21` [Example 125, 1-(2-Fluoro-phenyl)-8-pyridin-4-yl-1H-imidazo[4,5-c]quinoline], the “IC50 Range Class, inhibition of RET” value is “B/A”.

Still in this assay, the particulars now being: read-out: IC50 Range Class, inhibition of RET.
Consider `COc1ccc(OC)c(-c2ccc3ncc4ncn(-c5ccccc5F)c4c3c2)c1` [Example 119, 8-(2,5-Dimethoxy-phenyl)-1-(2-fluoro-phenyl)-1H-imidazo[4,5-c]quinoline], for which the IC50 was in the range of 500 to 1000 nM.
The same measure, in the same setting: next, `Oc1ccc(-c2ccc3ncc4ncn(-c5ccccc5F)c4c3c2)cc1` [Example 127, 4-[1-(2-Fluoro-phenyl)-1H-imidazo[4,5-c]quinolin-8-yl]-phenol]: ≤ 500 nM; `CN(C)Cc1cccc(-c2ccc3ncc4ncn(-c5ccccc5F)c4c3c2)c1` [Example 129, {3-[1-(2-Fluoro-phenyl)-1H-imidazo[4,5-c]quinolin-8-yl]-benzyl}-dimethyl-amine]: ≤ 500 nM.
For the compound `c1ccc(-n2cnc3cnc4ccc(-c5cccc(N6CCNCC6)c5)cc4c32)cc1` [Example 134, 1-Phenyl-8-(3-piperazin-1-yl-phenyl)-1H-imidazo[4,5-c]quinoline], the IC50 fell in the range of 500 to 1000 nM.

In a further assay the target is T2, S6K1 (Homo sapiens, UniProt P23443, T412E).
T2 construct: His (N); made in house; host or cells: Sf9 insect cells (baculovirus, pFastBacHT A), co-infected with GST-PDK1 virus
T2 sequence (P23443 1-421 T412E): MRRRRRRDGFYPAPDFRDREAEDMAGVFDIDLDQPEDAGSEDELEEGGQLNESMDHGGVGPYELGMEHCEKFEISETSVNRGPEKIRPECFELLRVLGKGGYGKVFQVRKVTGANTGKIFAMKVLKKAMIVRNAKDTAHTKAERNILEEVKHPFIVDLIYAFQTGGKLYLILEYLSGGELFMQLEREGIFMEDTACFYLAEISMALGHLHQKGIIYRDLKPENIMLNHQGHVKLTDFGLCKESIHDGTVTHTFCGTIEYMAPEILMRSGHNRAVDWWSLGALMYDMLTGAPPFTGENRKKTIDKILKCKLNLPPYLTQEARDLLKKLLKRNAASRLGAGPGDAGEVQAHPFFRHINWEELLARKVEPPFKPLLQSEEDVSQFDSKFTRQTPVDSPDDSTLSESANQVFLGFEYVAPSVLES
Nature of the assay: S6K1 kinase inhibition (S6K1ΔCT/T412E, TR-FRET). Conditions: read-out: IC50 Range Class, inhibition of S6K1. It is filed as biochemical. The source says:
The DNA fragment encoding S6K1ΔCT/T412E is subcloned to the baculovirus donor vector pFastBacHT A to generate a recombinant baculovirus that expresses S6K1ΔCT/T412E. Transfer vectors for S6K1ΔCT/T412E are transfected into the DH10Bac cell line (GIBCO). After selection of white colonies, they are used for viral DNA (bacmid) preparation. Sf9 cells (American Type Culture Collection) cells are then transfected with the viral DNA using Cellfectin reagent. Virus-containing media is collected from the transfected cell culture and is used for infection to increase its titer. For large-scale protein expression, Sf9 cells are co-infected with S6K1ΔCT/T412E and GST-PDK1 virus-containing media with MOI of 2.25 and 1, respectively. After 3 days, the cells expressing the recombinant enzyme are resuspended in the culture medium with a sterilized cell scraper and harvested by centrifugation. The cells are resuspended in 5 volumes of cell pellet of Extraction Buffer (50 mM MOPS pH 7.0, containing 300 mM NaCl, 0.05% Tween-20, 10 mM sodium pyrophosphate, 50 mM β-glycerophosphate, 0.2 mM cantharidic acid and 1× complete-EDTA protease inhibitor cocktail) and then disrupted with 15 strokes of a Dounce homogenizer followed by sonication on ice. The homogenate is centrifuged at 4° C. for 60 minutes at 48,000×g. The supernatant is clarified with a 5 μm filter and subjected to purification with TALON Superflow Resin (Clontech). First, 1 mL of TALON resin per 5 mL of the supernatant was equilibrated with the Extraction Buffer and resuspended in the supernatant followed by gentle agitation for 20 minutes at RT. After centrifugation at 700×g for 5 minutes, supernatant is removed. The resin is washed twice by adding 10 bed volumes of the Extraction Buffer, agitating for 10 minutes at RT, centrifugating at 700×g for 5 minutes, and discarding the supernatant. The resin is then resuspended with the same volume of the Extraction Buffer and transferred to an disposable chromatography column. The packed column is washed once with 10 bed volumes of the Extraction Buffer and additionally with the same volume of Wash Buffer (5 mM imidazole in the Extraction Buffer). Then, the His-tagged S6K1ΔCT/T412E is eluted with four bed volumes of Elution Buffer (150 mM imidazole in the Extraction Buffer).
Measure of enzyme activity: The kinase assay with purified S6K1ΔCT/T412E is performed with TR-FRET (Time-Resolved Fluorescene Resonance Energy Transfer) technology. First, ATP-dependent phosphorylation of the biotinylated substrate peptide corresponding to residues 229-242 of S6 ribosomal protein (Biot-AKRRRLSSLRASTS) is carried out for 1 hour at 37° C. in […] under humidified air. The kinase reaction mixture of the final volume of 9 μL contains 2.57 ng of purified S6K1ΔCT/T412E protein, 50 mM MOPS (pH 7.0), 0.1 mM EGTA, 0.01 mM Na3VO4, 0.05% Tween-20, 0.01% BSA, 1 mM DTT, 10 mM MgCl2, 3 μM ATP, 0.5 μM biotinylated substrate peptide, 1% of DMSO or the text compounds of the formula (I) at the required concentration in 1% DMSO. For measurement of background, 20 mM of EDTA is added to the reaction mixture. […] Phosphorylated peptide indicative of kinase activity is quantitated by exciting the sample at 330 nm and comparing donor emission at 615 nm and acceptor emission at 665 nm by 2101 EnVision HTS multilabel plate reader (Perkin Elmer). […]
(In TR-FRET formats the signal depends on donor and acceptor labels being close together.)
Regarding `Cc1cc(CCN)ccc1-n1cnc2cnc3ccc(-c4ccc5[nH]ccc5c4)cc3c21` [Example 22, 2-{4-[8-(1H-indol-5-yl)-Imidazo[4,5-c]quinolin-1-yl]-3-methyl-phenyl}-ethylamine], the IC50 is ≤ 500 nM.
Consider `NCCc1ccc(-n2cnc3cnc4ccc(-c5ccc(O)cc5)cc4c32)c(C(F)(F)F)c1` [Example 30, 4-{1-[4-(2-Amino-ethyl)-2-trifluoromethyl-phenyl]-1H-imidazo[4,5-c]quinolin-8-yl}-phenol], for which the IC50 is ≤ 500 nM.
In the case of `NCCc1ccc(-n2cnc3cnc4cc(F)c(-c5ccc6[nH]ccc6c5)cc4c32)c(Cl)c1` [Example 83, 2-{3-Chloro-4-[7-fluoro-8-(1H-indol-5-yl)-imidazo[4,5-c]quinolin-1-yl]-phenyl}-ethylamine], the IC50 was ≤ 500 nM.
